Counter-ions that a name gives are not always drawn.
Legend:
[1] = tested on: human Jurkat T cells deficient in FADD; assay: Cell protection effect under apoptosis-inducing condition (TNF-α); assay type: cell-based; conditions: 40 ng of TNF-α, 50 hours, CellTiter-Glo, read-out: I2.I Cell EC50
Experimental: The cell protection effect of the compounds according to the present invention under the condition of inducing apoptosis by TNF-α was confirmed by […]. An apoptosis inducing factor such as TNF-α was treated to induce apoptosis of human Jurkat T cells deficient in FADD, to which the example compound was treated, and the cell protection effect was confirmed through the following analysis. Jurkat T cells deficient in FADD were cultured using RPMI medium (Hyclone) containing 10% FBS. When performing the test, the cells were seeded in a 96-well plate containing a medium suitable for the cell line at the density of 10,000 cells/well, and cultured in a 37° C. 5% CO2 incubator for 24 hours. Then, each well was treated with 40 ng of TNF-α, and the compounds prepared in the above examples were each treated with a 3-fold concentration gradient with 1 μM as the highest concentration. As the solvent control, dimethyl sulfoxide (DMSO) was treated at the concentration of 0.05% (v/v), which was the same concentration as that used for the compound treatment. Then, the cells were cultured for 50 hours. To confirm the degree of viability of the cells, a mixture provided in CellTiter-Gloe Luminescent Cell Viability Assay Kit (Promega) was added to the culture medium of the cells, followed by further culture at 37° C. for 30 minutes. Then, luminescence fluorescence was measured. The degree of inhibition of apoptosis induction according to the treatment concentration of each compound was calculated based on the fluorescence of the solvent control cells not treated with the compound. At this time, the concentration of each compound inhibiting 50% was determined as EC50 (μM). EC50 of each compound was calculated using Prism (version 7.01, GraphPad) software.

human GST-RIPK1 = target: T1, human GST-RIPK1 (Homo sapiens, UniProt Q13546); assay: RIPK1 inhibitory activity (ADP-Glo kinase assay); assay type: biochemical; conditions: human GST-RIPK1 10 ng, ATP 50 uM, 25° C. for 4 hours, read-out: Enzyme IC50
T1 construct: GST; purchased signalchem
T1 sequence (Q13546 1-375 limits assumed): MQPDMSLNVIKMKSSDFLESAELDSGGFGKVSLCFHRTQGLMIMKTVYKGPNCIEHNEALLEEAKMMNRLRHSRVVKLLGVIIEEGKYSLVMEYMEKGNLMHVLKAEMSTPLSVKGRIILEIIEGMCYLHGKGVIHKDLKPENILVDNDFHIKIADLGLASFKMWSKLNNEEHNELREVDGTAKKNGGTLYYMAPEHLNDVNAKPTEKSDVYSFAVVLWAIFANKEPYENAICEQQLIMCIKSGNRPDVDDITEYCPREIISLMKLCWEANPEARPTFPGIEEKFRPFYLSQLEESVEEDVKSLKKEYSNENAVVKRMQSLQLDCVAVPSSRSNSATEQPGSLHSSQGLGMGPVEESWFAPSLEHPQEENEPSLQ
Experimental: The following experiment was performed to evaluate the inhibitory activity of the example compounds according to the present invention against RIPK1 (receptor-interacting serine/threonine protein kinase 1).
The example compound was reacted with the purified human GST-RIPK1 (1375, signalchem) enzyme to evaluate the enzyme inhibitory activity in the following manner. The composition of the reaction buffer used herein was as follows: 40 mM Tris-Hcl pH 7.4, 20 mM MgCl2, 0.5 mg/ml, BSA and 0.5 uM DTT. All the test materials were reacted in the reaction buffer. After reacting human GST-RIPK1 (1375, 10 ng), purified ATP (50 uM) and a specific substrate solution at 25° C. for 4 hours, the enzyme activity was confirmed using an in vitro ADP-Glo™ kinase assay (promega). Luminoscence was measured by reacting the enzyme activity reaction solution, ADP-Glo reaction solution, and enzyme activity detection solution at the ratio of 2:2:1. The degree of enzyme activity inhibition according to the treatment concentration of each compound was calculated based on the fluorescence of the enzyme activity of the solvent control not treated with the compound. At this time, the concentration of each compound inhibiting 50% of the enzyme activity was determined as IC50 (nM). IC50 of each compound was determined with three data sets and calculated using Prism (version 7.01, GraphPad) software.

Row | EC50 [1] [nM] | IC50 (human GST-RIPK1) [nM] | Compound
1 | 12.4 | 19 | O=C(Nc1cccc(C#Cc2cnc3cccnn23)c1)N1N=CCC1c1ccc2ccccc2c1 (centres unmarked) [Example 40, N-(3-(imidazo[1,2-b]pyridazin-3-ylethynyl)phenyl)-5-(naphthalen-2-yl)-4,5-dihydro-1H-pyrazole-1-carboxamide]
2 | 3.6 | 15 | O=C(Nc1cccc(C#Cc2cnc3ncccn23)c1)N1N=CCC1c1ccccc1 (centres unmarked) [Example 58, N-(3-(imidazo[1,2-a]pyrimidin-3-ylethynyl)phenyl)-5-phenyl-4,5-dihydro-1H-pyrazole-1-carboxamide]
3 | 1.7 | 7.68 | Cc1ccc(NC(=O)N2N=CCC2c2cc(F)cc(F)c2)cc1C#Cc1cnc2cccnn12 (centres unmarked) [Example 4, 5-(3,5-difluorophenyl)-N-(3-(imidazo[1,2-b]pyridazin-3-ylethynyl)-4-methylphenyl)-4,5-dihydro-1H-pyrazole-1-carboxamide 2,2,2-trifluoroacetate]
4 | 0.3 | 1.9 | O=C(Nc1ccnc(C#Cc2cnc3cccnn23)c1)N1N=CC[C@H]1c1ccccc1 [Example 49, (S)—N-(2-(imidazo[1,2-b]pyridazin-3-ylethynyl)pyridin-4-yl)-5-phenyl-4,5-dihydro-1H-pyrazole-1-carboxamide 2,2,2-trifluoroacetate]
5 | 249 | > 1000 | Cc1ccc(NC(=O)N2N=CC[C@@H]2c2cc(F)cc(F)c2)cc1C#Cc1cnc2cccnn12 [Example 6, (R)-5-(3,5-difluorophenyl)-N-(3-(imidazo[1,2-b]pyridazin-3-ylethynyl)-4-methylphenyl)-4,5-dihydro-1H-pyrazole-1-carboxamide 2,2,2-trifluoroacetate]
6 | > 1000 | 50.1 | O=C(Nc1cc(C#Cc2cnc3cccnn23)ccc1F)N1N=CCC1c1ccccc1 (centres unmarked) [Example 47, N-(2-fluoro-5-(imidazo[1,2-b]pyridazin-3-ylethynyl)phenyl)-5-phenyl-4,5-dihydro-1H-pyrazole-1-carboxamide 2,2,2-trifluoroacetate]
7 | 588 | > 1000 | O=C(Nc1cccc(C#Cc2cnc3cccnn23)c1)N1N=CC[C@@H]1c1ccccc1 [Example 21, (R)—N-(3-(imidazo[1,2-b]pyridazin-3-ylethynyl)phenyl)-5-phenyl-4,5-dihydro-1H-pyrazole-1-carboxamide hydrochloride]
8 | 0.17 | – | Cc1ccc(NC(=O)N2N=CCC2c2ccccc2)cc1C#Cc1cnc2cccnn12 (centres unmarked) [Example 1, N-(3-(imidazo[1,2-b]pyridazin-3-ylethynyl)-4-methylphenyl)-5-phenyl-4,5-dihydro-1H-pyrazole-1-carboxamide 2,2,2-trifluoroacetate]

More lines, now with the values behind:

Row | Compound | EC50 [1] [nM] | IC50 (human GST-RIPK1) [nM]
9 | O=C(Nc1cccc(C#Cc2cnc3cccnn23)c1)N1N=CC[C@@H]1c1ccc(F)cc1 [Example 33, (R)-5-(4-fluorophenyl)-N-(3-(imidazo[1,2-b]pyridazin-3-ylethynyl)phenyl)-4,5-dihydro-1H-pyrazole-1-carboxamide 2,2,2-trifluoroacetate] | 32 | > 1000
10 | Cc1ccc(NC(=O)N2N=CC[C@H]2c2cccc(F)c2)cc1C#Cc1cnc2cccnn12 [Example 9, (S)-5-(3-fluorophenyl)-N-(3-(imidazo[1,2-b]pyridazin-3-ylethynyl)-4-methylphenyl)-4,5-dihydro-1H-pyrazole-1-carboxamide 2,2,2-trifluoroacetate] | 0.41 | 19.5
11 | O=C(Nc1ccc(C#Cc2cnc3cccnn23)cc1)N1N=CCC1c1ccccc1 (centres unmarked) [Example 22, N-(4-(imidazo[1,2-b]pyridazin-3-ylethynyl)phenyl)-5-phenyl-4,5-dihydro-1H-pyrazole-1-carboxamide 2,2,2-trifluoroacetate] | > 1000 | > 1000
12 | Cn1ccc(Nc2cccn3c(C#Cc4cccc(NC(=O)N5N=CCC5c5ccccc5)c4)cnc23)n1 (centres unmarked) [Example 68, N-(3-((8-((1-methyl-1H-pyrazol-3-yl)amino)imidazo[1,2-a]pyridin-3-yl)ethynyl)phenyl)-5-phenyl-4,5-dihydro-1H-pyrazole-1-carboxamide 2,2,2-trifluoroacetate] | 0.12 | 38.6
13 | O=C(Nc1ccnc(C#Cc2cnc3cccnn23)c1)N1N=CC[C@@H]1c1ccccc1 [Example 50, (R)—N-(2-(imidazo[1,2-b]pyridazin-3-ylethynyl)pyridin-4-yl)-5-phenyl-4,5-dihydro-1H-pyrazole-1-carboxamide 2,2,2-trifluoroacetate] | 197 | > 1000
14 | Cc1ccc(NC(=O)N2N=CC[C@H]2c2ccccc2)cc1C#Cc1cnc2cccnn12 [Example 2, (S)—N-(3-(imidazo[1,2-b]pyridazin-3-ylethynyl)-4-methylphenyl)-5-phenyl-4,5-dihydro-1H-pyrazole-1-carboxamide 2,2,2-trifluoroacetate] | 0.06 | 5.1
15 | Cc1ccc(NC(=O)N2N=CCC2c2cccnc2)cc1C#Cc1cnc2cccnn12 (centres unmarked) [Example 16, N-(3-(imidazo[1,2-b]pyridazin-3-ylethynyl)-4-methylphenyl)-5-(pyridin-3-yl)-4,5-dihydro-1H-pyrazole-1-carboxamide 2,2,2-trifluoroacetate] | 0.05 | 1.8
16 | O=C(Nc1cccc(C#Cc2cnc3cccnn23)c1)N1N=CCC1c1ccncc1 (centres unmarked) [Example 38, N-(3-(imidazo[1,2-b]pyridazin-3-ylethynyl)phenyl)-5-(pyridin-4-yl)-4,5-dihydro-1H-pyrazole-1-carboxamide hydrochloride] | 106 | 1.1
17 | Cc1ccc(NC(=O)N2N=CCC2c2ccccn2)cc1C#Cc1cnc2cccnn12 (centres unmarked) [Example 17, N-(3-(imidazo[1,2-b]pyridazin-3-ylethynyl)-4-methylphenyl)-5-(pyridin-2-yl)-4,5-dihydro-1H-pyrazole-1-carboxamide 2,2,2-trifluoroacetate] | 0.2 | 1.8
18 | Cc1ccc(NC(=O)N2N=CC[C@H]2c2cc(F)cc(F)c2)cc1C#Cc1cnc2cccnn12 [Example 5, (S)-5-(3,5-difluorophenyl)-N-(3-(imidazo[1,2-b]pyridazin-3-ylethynyl)-4-methylphenyl)-4,5-dihydro-1H-pyrazole-1-carboxamide 2,2,2-trifluoroacetate] | 0.4 | 4.56
19 | Cc1cc(Nc2cccn3c(C#Cc4cccc(NC(=O)N5N=CCC5c5ccccc5)c4)cnc23)n[nH]1 (centres unmarked) [Example 66, N-(3-((8-((5-methyl-1H-pyrazol-3-yl)amino)imidazo[1,2-a]pyridin-3-yl)ethynyl)phenyl)-5-phenyl-4,5-dihydro-1H-pyrazole-1-carboxamide 2,2,2-trifluoroacetate] | 0.22 | 30.6
20 | O=C(Nc1cccc(C#Cc2cnc3cccnn23)c1)N1N=CC[C@H]1c1ccccc1 [Example 20, (S)—N-(3-(imidazo[1,2-b]pyridazin-3-ylethynyl)phenyl)-5-phenyl-4,5-dihydro-1H-pyrazole-1-carboxamide hydrochloride] | 0.021 | 0.52
21 | O=C(Nc1ccc(F)c(C#Cc2cnc3cccnn23)c1)N1N=CC[C@@H]1c1ccccc1 [Example 46, (R)—N-(4-fluoro-3-(imidazo[1,2-b]pyridazin-3-ylethynyl)phenyl)-5-phenyl-4,5-dihydro-1H-pyrazole-1-carboxamide 2,2,2-trifluoroacetate] | 97.7 | 205

From patent US20210284647A1, “N-(3-(IMIDAZO[1,2-B]PYRIDAZIN-3-YLETHYNYL)-4-METHYLPHENYL)-5-PHENYL-4,5-DIHYDRO-1H-PYRAZOLE-1-CARBOXAMIDE DERIVATIVE, AND PHARMACEUTICAL COMPOSITION CONTAINING SAME AS ACTIVE INGREDIENT FOR TREATING KINASE-RELATED DISEASES” (VORONOIBIO INC., priority 2018, published 2021)
